According to patent publication US9630956B2, “Compounds useful as inhibitors of ATR kinase” (Vertex Pharmaceuticals Incorporated, priority 2010, dated 2017):

Legend:
full-length ATR = full-length ATR (Homo sapiens (Human), UniProt Q13535); experiment: ATR Inhibition Assay (radioactive-phosphate incorporation); assay type: biochemical; conditions: ATR Inhibition Ki(app); 10 μM ATP, 800 μM target peptide, 5 nM full-length ATR, 25° C.
Summary of the method: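 Full-length ATR at 5 nM was run in 50 mM Tris/HCl pH 7.5, 10 mM MgCl2 and 1 mM DTT with 10 μM [γ-33P]ATP and 800 μM peptide at 25° C, after a 10 min compound pre-incubation (top final 15 μM, 3-fold dilutions, 7% DMSO). Reactions were stopped at 24 h and counted after phosphocellulose capture. Ki(app) came from non-linear regression of initial rates.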

[1] = system: HCT116 colorectal cancer cells; experiment: Cisplatin Sensitization Assay (96h cell viability MTS); assay type: cell-based; conditions: concentration of compound required to reduce the IC50 of Cisplatin alone by at least 3-fold, 96h MTS
Method: Compounds can be screened for their ability to sensitize HCT116 colorectal cancer cells to Cisplatin using a 96h cell viability (MTS) assay. […] Compounds and Cisplatin are then both added simultaneously to the cell media in 2-fold serial dilutions from a top final concentration of 10 μM as a full matrix of concentrations in a final cell volume of 200 μl, and the cells are then incubated at 37° C. in 5% CO2. After 96h, 40 μl of […] (Promega G358a) is added to each well and the cells are incubated for 1 h at 37° C. in 5% CO2.

full-length ATR, sequence (Q13535 whole entry): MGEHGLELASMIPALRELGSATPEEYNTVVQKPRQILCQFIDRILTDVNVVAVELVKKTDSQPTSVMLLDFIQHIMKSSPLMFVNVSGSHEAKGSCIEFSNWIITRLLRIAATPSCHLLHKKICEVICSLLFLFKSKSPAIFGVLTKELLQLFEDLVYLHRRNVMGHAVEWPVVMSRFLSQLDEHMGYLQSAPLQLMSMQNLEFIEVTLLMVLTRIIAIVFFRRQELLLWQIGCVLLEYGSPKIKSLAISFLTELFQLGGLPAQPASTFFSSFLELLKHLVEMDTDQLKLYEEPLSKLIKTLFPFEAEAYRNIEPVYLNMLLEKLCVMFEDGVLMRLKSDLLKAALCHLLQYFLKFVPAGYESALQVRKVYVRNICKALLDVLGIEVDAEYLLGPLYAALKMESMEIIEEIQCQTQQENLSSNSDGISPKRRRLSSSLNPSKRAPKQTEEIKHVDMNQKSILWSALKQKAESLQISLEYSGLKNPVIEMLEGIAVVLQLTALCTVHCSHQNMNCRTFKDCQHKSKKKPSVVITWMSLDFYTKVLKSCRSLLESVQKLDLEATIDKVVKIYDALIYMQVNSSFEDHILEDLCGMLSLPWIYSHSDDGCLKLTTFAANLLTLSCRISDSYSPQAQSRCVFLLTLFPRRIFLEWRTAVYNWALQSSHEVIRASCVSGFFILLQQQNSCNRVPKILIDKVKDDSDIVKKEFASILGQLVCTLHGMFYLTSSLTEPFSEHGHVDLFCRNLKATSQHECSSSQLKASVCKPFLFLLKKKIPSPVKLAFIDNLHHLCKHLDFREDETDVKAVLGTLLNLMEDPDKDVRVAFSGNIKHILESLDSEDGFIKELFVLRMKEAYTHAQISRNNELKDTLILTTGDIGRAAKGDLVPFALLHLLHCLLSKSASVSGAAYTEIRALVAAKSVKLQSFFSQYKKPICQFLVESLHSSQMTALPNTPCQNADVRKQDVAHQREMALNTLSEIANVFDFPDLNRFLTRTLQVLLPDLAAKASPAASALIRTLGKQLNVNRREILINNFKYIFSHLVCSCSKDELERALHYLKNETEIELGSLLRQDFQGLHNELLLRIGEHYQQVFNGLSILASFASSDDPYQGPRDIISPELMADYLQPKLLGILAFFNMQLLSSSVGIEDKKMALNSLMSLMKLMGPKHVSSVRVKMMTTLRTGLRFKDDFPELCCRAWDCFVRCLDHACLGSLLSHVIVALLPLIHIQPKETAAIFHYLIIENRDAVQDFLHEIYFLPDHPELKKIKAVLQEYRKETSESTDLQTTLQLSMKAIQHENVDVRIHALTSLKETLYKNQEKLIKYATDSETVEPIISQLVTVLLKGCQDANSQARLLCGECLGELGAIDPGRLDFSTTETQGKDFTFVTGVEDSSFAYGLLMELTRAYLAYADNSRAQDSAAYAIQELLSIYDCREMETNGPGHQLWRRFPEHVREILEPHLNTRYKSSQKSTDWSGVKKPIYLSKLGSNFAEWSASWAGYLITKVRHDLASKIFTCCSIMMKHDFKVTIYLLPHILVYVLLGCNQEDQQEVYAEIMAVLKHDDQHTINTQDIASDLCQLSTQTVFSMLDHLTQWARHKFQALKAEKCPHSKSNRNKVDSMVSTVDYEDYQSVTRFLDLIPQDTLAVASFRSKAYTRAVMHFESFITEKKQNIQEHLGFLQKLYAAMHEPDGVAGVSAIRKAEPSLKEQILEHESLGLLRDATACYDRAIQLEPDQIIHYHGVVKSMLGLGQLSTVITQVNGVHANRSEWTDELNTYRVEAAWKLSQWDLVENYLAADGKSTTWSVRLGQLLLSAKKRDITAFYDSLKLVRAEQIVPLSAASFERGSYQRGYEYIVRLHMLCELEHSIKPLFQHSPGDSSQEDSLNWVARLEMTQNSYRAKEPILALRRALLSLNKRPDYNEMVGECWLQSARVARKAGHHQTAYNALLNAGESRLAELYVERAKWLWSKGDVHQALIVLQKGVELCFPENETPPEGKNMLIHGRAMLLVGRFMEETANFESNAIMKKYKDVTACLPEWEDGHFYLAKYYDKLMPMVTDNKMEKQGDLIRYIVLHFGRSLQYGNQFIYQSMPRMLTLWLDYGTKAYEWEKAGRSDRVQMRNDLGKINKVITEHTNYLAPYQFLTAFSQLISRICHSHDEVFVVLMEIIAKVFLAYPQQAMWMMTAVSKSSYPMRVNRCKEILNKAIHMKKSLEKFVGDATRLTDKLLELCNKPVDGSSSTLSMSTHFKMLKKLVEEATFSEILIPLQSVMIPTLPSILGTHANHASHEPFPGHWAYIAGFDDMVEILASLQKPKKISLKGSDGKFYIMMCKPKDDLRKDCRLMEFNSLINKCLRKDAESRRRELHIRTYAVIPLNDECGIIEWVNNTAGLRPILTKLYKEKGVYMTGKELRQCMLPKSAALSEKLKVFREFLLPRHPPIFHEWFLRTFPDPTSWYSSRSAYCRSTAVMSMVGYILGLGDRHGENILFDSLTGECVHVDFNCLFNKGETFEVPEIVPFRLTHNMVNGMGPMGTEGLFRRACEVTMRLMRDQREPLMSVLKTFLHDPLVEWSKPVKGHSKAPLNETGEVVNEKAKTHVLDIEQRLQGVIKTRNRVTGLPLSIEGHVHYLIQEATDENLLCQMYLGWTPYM

CCC(CC)n1cc(-c2cnc(N)c(-c3cc(-c4ccc(CNC5CC(F)(F)C5)cc4)no3)n2)ccc1=O [Compound I-127]
Ki (full-length ATR): ≤ 5 nM
CP3 shift [1]: 0.312 µM

CCC(CC)n1cc(-c2cnc(N)c(-c3cc(-c4ccc(CNC5CC5)cc4F)no3)n2)ccc1=O [Compound I-128]
Ki (full-length ATR): ≤ 5 nM
CP3 shift [1]: 0.078 µM

CCC(CC)n1cc(-c2cnc(N)c(-c3cc(-c4ccc(CNC)cc4F)no3)n2)ccc1=O [Compound I-129]
Ki (full-length ATR): ≤ 5 nM
CP3 shift [1]: 0.02 µM

CCC(CC)n1cc(-c2cnc(N)c(-c3cc(-c4ccc(CN[C@@H]5CCC(F)C5)cc4)no3)n2)ccc1=O (stereo partly drawn) [Compound I-130]
Ki (full-length ATR): ≤ 5 nM
CP3 shift [1]: 0.078 µM

CCC(CC)n1cc(-c2cnc(N)c(-c3cc(-c4cccc(C(N)CF)c4)no3)n2)ccc1=O (stereo not drawn) [Compound I-131]
Ki (full-length ATR): ≤ 5 nM
CP3 shift [1]: 0.02 µM

CCC(CC)c1cc(-c2cnc(N)c(-c3cc(-c4ccc(CNC)cc4F)no3)n2)c[nH]c1=O [Compound I-132]
Ki (full-length ATR): ≤ 5 nM
CP3 shift [1]: 0.01 µM

CCC(N)c1cccc(-c2cc(-c3nc(-c4ccc(=O)n(C(CC)CC)c4)cnc3N)on2)c1 (stereo not drawn) [Compound I-133]
Ki (full-length ATR): ≤ 5 nM
CP3 shift [1]: 0.039 µM

CCC(C#N)(CC)n1cc(-c2cnc(N)c(-c3cc(-c4ccc(CNC)cc4)no3)n2)ccc1=O [Compound I-134]
Ki (full-length ATR): ≤ 5 nM
CP3 shift [1]: 0.02 µM

CCC(C#N)(CC)n1cc(-c2cnc(N)c(-c3cc(-c4cccc([C@@H](C)N)c4)no3)n2)ccc1=O [Compound I-138]
Ki (full-length ATR): ≤ 5 nM
CP3 shift [1]: 0.01 µM

CCC(CC)n1cc(-c2cnc(N)c(-c3cc(-c4ccc(CNC5(C)CC5)cc4)no3)n2)ccc1=O [Compound I-140]
Ki (full-length ATR): ≤ 5 nM
CP3 shift [1]: 0.156 µM

CNCc1ccc(-c2cc(-c3nc(-c4ccc(=O)n(C5(C#N)CCCC5)c4)cnc3N)on2)cc1 [Compound I-143]
Ki (full-length ATR): ≤ 5 nM
CP3 shift [1]: 0.01 µM

CC(C)(C#N)n1cc(-c2cnc(N)c(-c3cc(-c4ccc(CNC5CCOC5)cc4)no3)n2)ccc1=O (stereo not drawn) [Compound I-145]
Ki (full-length ATR): ≤ 5 nM
CP3 shift [1]: 0.01 µM
